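Each compound was tested at five concentrations against cells in 96-well plates for 48 hours. TGI is the concentration that stops growth completely.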
Key:
Experiment in all cases: NCI-60 cell line screen, 48 h
HL-60(TB) leukemia = system: HL-60(TB) leukemia
ACHN renal = system: ACHN renal
CCRF-CEM leukemia = system: CCRF-CEM leukemia
NCI-H23 lung = system: NCI-H23 lung
K-562 leukemia = system: K-562 leukemia
DU-145 prostate = system: DU-145 prostate
CAKI-1 renal = system: CAKI-1 renal
TK-10 renal = system: TK-10 renal
SF-539 CNS = system: SF-539 CNS
BT-549 breast = system: BT-549 breast

SMILES	TGI (HL-60(TB) leukemia) [µM]	TGI (ACHN renal) [µM]	TGI (CCRF-CEM leukemia) [µM]	TGI (NCI-H23 lung) [µM]	TGI (K-562 leukemia) [µM]	TGI (DU-145 prostate) [µM]	TGI (CAKI-1 renal) [µM]	TGI (TK-10 renal) [µM]	TGI (SF-539 CNS) [µM]	TGI (BT-549 breast) [µM]
COc1ccc(-c2ccc(C(=O)C=P(c3ccccc3)(c3ccccc3)c3ccccc3)cc2)cc1	6.77	30.7	> 100	51	20.6	39.4	42	47.1	35.9	
C=CCC(O[Si](C)(C)C(C)(C)C)c1cc(O[Si](C)(C)C(C)(C)C)ccc1OC (stereo not given)	> 100		> 100	> 100	> 100		> 100		> 100	
O=c1[nH]c(=O)n(COC(CO)CO)cc1-c1ccccc1	> 100	> 100	> 100	> 100	> 100	> 100	> 100	> 100		
COC(=O)[C@]1(c2cc3ccccc3n2S(=O)(=O)c2ccccc2)CC2CN(C(=O)OCc3ccccc3)C1C1OC(C)(C)OC21 (stereo not given in full)	> 100	> 100	> 100	> 100		> 100	> 100	> 100		> 100
CCC1(O)CC(CCN(Cc2ccccc2)C(=O)OCc2ccccc2)C(OCc2ccccc2)C1O (stereo not given)		32.2	81.7	30.4	19.5	36.3	65.7	36.8		33.3
CCCCCC[C@H]([C@H](C)O)n1cnc2c(N)ncnc21	> 100	> 100	> 100	> 100	> 100	> 100	> 100	> 100	> 100	
CC1=NN(C(=O)CC(=O)Nc2cccc(C)c2)C(=O)C1N=Nc1ccc(S(=O)(=O)CCOS(=O)(=O)O)cc1 (stereo not given)	> 100	17.1	> 100	24.6	> 100	> 100	2.96	26.2	6.49	
CC(O)c1nc(C#N)c(N)o1 (stereo not given)	> 100	> 100	> 100	> 100	> 100	> 100	> 100	> 100	> 100	
O=C(O)C(Cc1ccccc1)NCc1c(O)ccc2c(-c3ccccc3)cc(=O)oc12 (stereo not given)	> 100	> 100	> 100	> 100	> 100	> 100	> 100	> 100	> 100	
CC1=C(CO)C(=O)OC(C(C)C2CCC3C4CC5OC56C(O)C(N5CC5)=CC(=O)C6(C)C4CCC23C)C1 (stereo not given)	6.08	19.5	7.45	7	14.2			22	14	
C[s+]1c2ccccc2c2ccccc21	> 100	> 100	> 100		> 100			> 100	> 100	
CCOc1ccc2nc(NC(=O)C(=O)C(C(=O)c3ccccc3F)C3OC(=O)c4ccccc43)sc2c1 (stereo not given)	50.1	> 100	40.1		> 100		75.3	90.7	52.4	
C/C(=C1\N=C(c2ccccc2)OC1=O)c1ccccc1	> 100	> 100	> 100	> 100	> 100	> 100	> 100	> 100	> 100	
C[C@H]1S[C@@H](c2ccc(Cl)cc2Cl)N(NC(=O)c2ccncc2)C1=O	> 100		> 100	> 100	> 100	> 100	> 100			> 100
CC(C)(C)C(=O)Nc1c(C=O)ccc2[nH]cnc12		> 100	> 100	> 100	> 100		> 100	> 100	> 100	> 100
COC1(CC[C@@H](C)COC2OC(CO)C(O)C(O)C2O)OC2C[C@H]3[C@@H]4CC[C@H]5C[C@@H](OC6OC(CO)C(OC7OC(CO)C(O)C(O)C7O)C(O)C6OC6OC(C)C(O)C(O)C6O)[C@H](O)C[C@]5(C)[C@H]4CC[C@]3(C)C2[C@@H]1C (stereo not given in full)	5.38	3.33	3.9		7.81	3.92	4.29	3.82	3.34	
CC1OC(OC2C(O[C@H]3CC[C@@]4(C)C(=CC[C@H]5[C@@H]6C[C@@H]7O[C@]8(CC[C@@H](C)CO8)[C@@H](C)[C@@H]7[C@@]6(C)CC[C@@H]54)C3)OC(CO)C(O)C2OC2OC(CO)C(O)C(O)C2O)C(O)C(O)C1O (stereo not given in full)		3.29	> 100	3.44	> 100	4.09	5.07	4.01	5.23	4.73

SMILES	TGI (HL-60(TB) leukemia) [µM]	TGI (ACHN renal) [µM]	TGI (CCRF-CEM leukemia) [µM]	TGI (NCI-H23 lung) [µM]	TGI (K-562 leukemia) [µM]	TGI (DU-145 prostate) [µM]	TGI (CAKI-1 renal) [µM]	TGI (TK-10 renal) [µM]	TGI (SF-539 CNS) [µM]	TGI (BT-549 breast) [µM]
CC(C)CCCC(C)[C@H]1CCC(C2C[C@@H](O)[C@@H]3CC(O)[C@@H](O)C[C@]3(CO)C2=O)[C@]1(C)CCO (stereo not given in full)	38.6		40.9	> 90.5	61.2				39.6	
COC(=O)c1c2c(cc3c1CC1(Cc4cc5c(c(C=O)c4C1)CCC5)C3)CCC2 (stereo not given)	51.5	> 100	56.7	> 100	> 100	> 100	> 100	> 100	> 100	
CN(CCCCCl)P(=O)(OCc1ccc([N+](=O)[O-])o1)OCC1OC(n2ccc(N)nc2=O)C(O)C1O (stereo not given)	31.8	> 100		33.1	> 100	44.6	> 100	> 100	38.9	
N#Cc1c(-c2ccc([N+](=O)[O-])cc2)c(C#N)c(=O)n(NS(=O)(=O)c2ccccc2)c1S		> 100	49.3		77.4		> 100	> 100	46.1	39.2
FC1=C2C3CCC(C3)C2C1(F)F (stereo not given)	> 100	> 100	> 100	> 100	> 100	> 100	> 100	> 100	> 100	
COC(=O)c1sc(=O)sc1SCc1cccc(CSc2sc(=O)sc2C(=O)OC)c1		> 100	> 100	> 100	> 100	> 100	93.5	57.5		> 100
C/C(=N\Nc1nc2ccccc2s1)c1ccncn1		11.8	> 100	5.55		> 66.1	12.2		35.9	21.4
Oc1ccc(C(O)C2CCCCN2)cc1O (stereo not given)		> 100		> 100	> 100	> 100	> 100	> 100	> 100	> 100
COP(=O)(OC)OCN(C)CC/C=C(\C)CC/C=C(\C)CCC=C(C)C		64.2	51.9	34.7	20.6		33.8	21.9	30.3	30
COC(=O)C1=C(CCCCO[Si](C)(C)C(C)(C)C)NC(=O)N2[C@H](CCOCc3ccccc3)CC[C@@H]12		> 100		> 100	> 100	> 100	> 100	> 100	> 100	> 100
CC(Nc1ccc(Cl)cc1)c1ccncc1 (stereo not given)		> 100	> 100	> 100	> 100	> 100	> 100	> 100	> 100	> 100
CCOC(=O)c1c(-c2ccc(OC)cc2)ccn1C		> 10	> 10	> 10	> 10	> 10	> 10	> 10	> 10	> 10
COc1cc2c[n+]3c4c(c2c(OC)c1OC)CCCC4CC3 (stereo not given)		> 100	> 100	> 100	> 100	> 100	> 100			
CC(=O)CC1(CBr)Nc2ccc([N+](=O)[O-])cc2NC1=O (stereo not given)		> 100	> 100	> 100	> 100	> 100	> 100	> 100	> 100	> 100
O=c1c2cc(Br)cc(Br)c2[nH]c(=S)n1-c1ccc(N=Nc2ccc(O)c3cccnc23)cc1	> 100	> 100			> 100	> 100	> 100	> 100	31.3	
C=C1CCC[C@@H](C)C(O)[C@@H]2OC(=O)C(=C)[C@@H]2C[C@@H](OC(C)=O)[C@@]2(C)CC[C@@H]1O2 (stereo not given in full)		13.4	6.8	15.2	12.1	14.3	13.6	14.8	15.3	14.4
N#Cc1ccccc1NC(=O)C(=O)C(C(=O)c1ccccc1F)C1OC(=O)c2ccccc21 (stereo not given)	54.6	> 100	37.9	> 100	> 100		> 100	> 100	82.9	

— PubChem BioAssay (NCI)
